{"source": "patent US20180028690A1", "about": "“INDOCYANINE GREEN FORMULATIONS AND METHODS FOR IMAGING OF THE URINARY PATHWAYS” (Yissum Reseach Development Company of the Herbrew …, priority 2015, published 2018)", "key": {"[1]": {"settings": "literature (Bax 1980; Cherrick 1960); cited from earlier work"}, "[2]": {"assay": "Ureter imaging with ICG-HPβCD inclusion complex vs free ICG (Typhoon imager)", "format": "in vivo, female FVB mice", "settings": "8 mg/kg ICG, 10 min post injection", "experimental": "60 mg of ICG (Acros) was solubilized in 12.5 ml of DDW. 2 ml of ICG solution were added to 10 ml of phosphate buffer (pH 7, 2 mM, and sucrose 9.3% w/w). 18.5 mg of HPβCD (Acros) were added to ICG buffered solution and mixed for 10 h at 4° C. […] Mice were sacrificed 10 min post injection and imaged by Typhoon imager (General Electric)."}, "[3]": {"assay": "Whole body NIR imaging (IVIS Kinetic) after intravenous injection", "format": "in vivo, Female FVB mice", "experimental": "Mice were shaved under isoflurane (1-2%, v/v) anesthesia and underwent baseline scans using an IVIS Kinetic® in vivo imaging system (Caliper Life Sciences, Hopkinton, Mass., USA). Two hundred μl of 8 mg/kg Phospholipon® 50 ICG liposomes or the free compound in 2 mM sucrose buffer (phosphate buffer pH 7, with 9.3% w/w sucrose) were injected into the tail vein and the mice were repetitively scanned over a time period of up to 120 min.\nAnalysis of in vivo ICG pharmacokinetics (PK), including region of interest (ROI) placement (Living Image; PerkinElmer, Waltham, Mass., USA; (Schneider et al., 2012)) and calculation of the area under the concentration-time curve (AUC) from the time of injection to the time of the last measurement (Phoenix WinNonlin; Certara; St. Louis, Mo., USA), was conducted as previously described (Portnoy et al., 2012). Partial areas were calculated for the AUC between the time of ICG injection (0 min) and 60 or 120 min after injection (AUC0-60 min and AUC0-120 mm, respectively). Data are presented as means±SD. The non-parametric Mann-Whitney or Kruskal-Wallis tests, as appropriate, were used to determine the statistical significance of difference (p<0.05) between experimental groups (InStat; GraphPad, La Jolla, Calif., USA)."}, "[4]": {"assay": "Stability of ICG absorption at light and at dark over time", "format": "physicochemical", "settings": "aqueous solution or adsorbed to liposomes", "experimental": "The red shift is accompanied with quenching of fluorescence, i.e., the larger the red shift the lower the fluorescence intensity. Because the fluorescence intensity of ICG-liposomes was greater than that of unbound ICG molecules (aqueous solution), the quantum yield ratio between the two states in which ICG is present was determined, for a concentration of 1.28×10^−3 mM. ICG is poorly stable in aqueous solutions due to degradation, and therefore, in order to evaluate the stability of the ICG-adsorbed liposomes, the absorption of this fluorescent probe, when dissolved in an aqueous solution or adsorbed to the liposomes, was measured at light and at dark over time."}, "[5]": {"assay": "Fluorescence spectra and relative quantum yield of ICG-adsorbed liposomes vs ICG in aqueous solution", "format": "physicochemical", "protocol": "The fluorescence spectra of the ICG-adsorbed liposomes prepared were evaluated in comparison to those of ICG in aqueous solution.\nThe relative quantum yield was calculated according to the following equation (Fery-Forgues and Lavabre, 1999):\nwhere φ is the quantum yield, F is the area under the emission peak (expressed in number of photons), A is absorbance at the excitation wavelength, and n is the refractive index of the solvents. The subscript x denotes the respective values of the sample (liposome-ICG), and s denotes standard (free ICG in buffer)."}, "[6]": {"assay": "Imaging of surgically exposed kidneys and ureters after midline laparotomy", "format": "in vivo, Female FVB mice", "settings": "P<0.01", "experimental": "An additional cohort of animals was used for further studies of the accumulation of liposomal ICG in the urinary system. Liposomal or free ICG was injected into the tail vein, and 3 min later, mice were treated with high dose pentobarbital administered intraperitoneally. Overall time of active circulation after the ICG injection was about 10 min. Thereafter, mice were subjected to midline laparotomy with full exposure of the retroperitoneum. The ureters were identified in their origin from the kidneys, and distally clipped or loosely tied for identification. The mice were also hysterectomyzed to ease the urinary bladder identification. Subsequently, the animals were scanned by the Typhoon FLA 9500 biomolecular imager. Each experiment was repeated at least three times."}}, "note": "Where “and” joins values, the source holds several entries; their conditions need not be identical. Equal entries are not always repeated."}
{"smiles": "CC1(C)C(/C=C/C=C/C=C/C=C2\\N(CCCCS(=O)(=O)O)c3ccc4ccccc4c3C2(C)C)=[N+](CCCCS(=O)(=O)[O-])c2ccc3ccccc3c21", "note": "[free ICG, indocyanine green]", "values": [{"measurement": "half life in plasma", "setting": "[1]", "result": "in the minutes range"}, {"measurement": "renal elimination after systemic administration", "setting": "[1]", "result": "negligible"}, {"measurement": "labelling of ureters", "setting": "[2]", "result": "did not"}, {"measurement": "renal excretion", "setting": "[2]", "result": "negligibly excreted in the urine"}, {"measurement": "urinary bladder/feet AUC0-60 min ratio of emission intensity", "setting": "[3]; 8 mg/kg ICG i.v., feet-normalized AUC, 0-60 min", "result": "2.3±0.5"}, {"measurement": "urinary bladder/feet AUC0-120 min ratio of emission intensity", "setting": "[3]; 8 mg/kg ICG i.v., feet-normalized AUC, 0-120 min", "result": "2.3±0.4"}, {"measurement": "emission intensity AUC of the urinary bladder relative to that of the feet", "setting": "[3]; control mice, 8 mg/kg i.v.", "result": 2.3, "unit": "fold"}, {"measurement": "absorption over time at light and at dark (stability)", "setting": "[4]", "result": "decreases over time both in light and in dark"}, {"measurement": "ICG emission peak in water, shift", "setting": "[5]; concentrations above 6.4×10^−3 mM", "result": "up to 814 nm"}, {"measurement": "ICG emission peak in water", "setting": "[5]; concentrations less than 6.4×10^−3 mM", "result": 805, "unit": "nm"}, {"measurement": "ureteral emission normalized to renal emission (ureters/kidneys ratio)", "setting": "[6]", "result": "0.56±0.10 and 0.5"}]}
